In patent US8653304B2, “2,3-dihydro-1H-indene-2-yl urea derivative and pharmaceutical application of same” (Toray Industries, Inc., priority 2009, dated 2014):

How the values were obtained:
HepG2 cells = assay: Ability to induce drug-induced phospholipidosis (HepG2, HCS Lipid TOX Green); format: cell-based, human; details: 48 hours
Description: Whether an ability to induce phospholipidosis by Compound (I) was observed or not was studied. The evaluation of Compound 46b described in the Examples was carried out by a method partially modified from the method described in Experimental and Toxicologic Pathology (2007, Vol. 58, pp. 375-382).
Each test compound and HCS Lipid TOX Green Phospholipidosis Detection Regent (Invitrogen), which is a phospholipid staining solution, were mixed with HepG2 cells, which are a cell line derived from human hepatoma, and the cells were cultured in the presence of 5% CO2 at 37° C. for 48 hours. The culture supernatant after the culturing was removed, and Hoechest 33258 (Invitrogen), which is a nucleic acid staining solution, was added, followed by allowing the resulting mixture to react in the dark at room temperature for 20 minutes. The resultant was washed with PBS solution. Then the fluorescence intensity was measured with a microplate analyzer (Fusion-α, Packard), and FLA (a relative value when taking amiodarone hydrochloride (10 μM) as 1, the amiodarone hydrochloride being a positive control substance) was calculated according to the following equations. The case where FLA was less than 1 was judged as negative, and the case where FLA was not less than 1 was judged as positive. […]

human p38 MAPK α = human p38 MAPK α (Homo sapiens (Human), UniProt Q16539); assay: Evaluation of p38 MAPK inhibitory activity (Alpha Screen, ATF2 phosphorylation); format: biochemical; details: p38α/SAPK2a 1.5 nM, ATP 100 μM, biotinylated ATF2 30 nM
human p38 MAPK α, sequence (Q16539 whole entry): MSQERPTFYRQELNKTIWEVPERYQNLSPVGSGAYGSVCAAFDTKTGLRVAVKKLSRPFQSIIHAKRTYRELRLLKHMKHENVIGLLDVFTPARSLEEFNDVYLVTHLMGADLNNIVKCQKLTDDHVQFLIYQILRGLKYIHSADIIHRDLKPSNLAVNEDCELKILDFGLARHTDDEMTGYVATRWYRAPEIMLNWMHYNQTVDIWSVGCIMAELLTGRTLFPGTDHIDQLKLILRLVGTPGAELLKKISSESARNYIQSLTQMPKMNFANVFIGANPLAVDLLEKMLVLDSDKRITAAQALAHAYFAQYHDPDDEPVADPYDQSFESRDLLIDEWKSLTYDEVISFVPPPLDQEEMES
Description: Using human p38 MAPK α, the p38 MAPK inhibitory activity of Compound (I) was studied by a method partially modified from the method described in Current Medicinal Chemistry (2004, No. 11, pp. 721-730).
A solution of each test compound solution in 100% DMSO and a p38α/SAPK2a solution (Final Concentration: 1.5 nM) (Invitrogen) were added to a 384-well plate, and then the plate was incubated at room temperature in a dark place for 1 hour. Thereafter, ATP (Final Concentration: 100 μM), which is a phosphate donor, and biotinylated ATF2 (Final Concentration: 30 nM) (upstate), which is a substrate, were added, and the resulting mixture was allowed to react at room temperature in a dark place for 1 hour (the final concentration of DMSO was 0.25%). After the reaction, an anti-phosphorylated ATF2 antibody (Final Concentration: 1 nM) (Cell Signaling), anti-IgG acceptor beads (Final Concentration: 20 μg/mL) (PerkinElmer) and streptavidin donor beads (Final Concentration: 20 μg/mL) (PerkinElmer) were added, and the resultant was incubated at room temperature in a dark place for 1 hour. Using a microplate analyzer (Fusion-α, Packard) in Alpha Screen method (Amplified Luminescent Proximity Homogeneous Assay), the light emission was detected. The IC50 value of each compound was calculated by sigmoidal dose-response regression using Prism 4.02 (GraphPad Software, Inc.).

[1] = system: skin swelling response in type IV allergic dermatitis model; assay: Skin swelling response in type IV allergic dermatitis model; format: in vivo; details: BALB/c mouse, 24 hours after induction
Description: The action of Compound (I) on skin swelling response in mouse allergic dermatitis models was studied. As the allergic dermatitis models, models partially modified from a type I allergic dermatitis model and a type IV allergic dermatitis model described in documents (Inflamm. Res., 1998, Vol. 47, pp. 506-511 and Int. Arch. Allergy. Appl. Immunol., 1990, Vol. 92, pp. 356-360) were used.
To the back of each BALB/c mouse (female, 7-week old, Charles River Laboratories Japan, Inc.), 25 μL of 0.5% DNFB solution dissolved in acetone:olive oil (4:1) was applied. On the next day, the same operations were repeated to actively sensitize the mouse. Four days after the sensitization, 20 μL of 0.2% DNFB solution dissolved in acetone:olive oil (4:1) was applied to the auricle of the sensitized mouse to induce inflammation. Twenty four hours after the induction, the thickness of the auricle was measured using a Digimatic Indicator (Mitutoyo). Each test compound was dissolved in ethanol and 20 μL of 0.5 w/v % solution was applied to the auricle at 1 hour before the induction; or each test compound was suspended in 0.5% methylcellulose (Wako Pure Chemical Industries, Ltd.) and the resulting solution was orally administered at 30 mg/kg at 1 hour before the induction. The swelling ratio of the auricle was calculated according to the following equation: Auricular Swelling Ratio(%)=(A−B)/B×100

[2] = system: colonic disorders in DSS-induced chronic colitis model; assay: Colonic disorders in DSS-induced chronic colitis model; format: in vivo; details: BALB/c mouse, oral 10 mg/kg once Day 27, twice a day Day 28-31; scores Day 28-32
Description: The action of Compound (I) on colonic disorders in inflammatory bowel disease models was studied. As the inflammatory bowel disease models, models partially modified from a TNBS-induced colitis model and a DSS-induced chronic colitis model described in documents (Gastroenterology, 1989, Vol. 96, pp. 29-36 and Am. J. Physiol. Gastrointest. Liver Physiol., 2004, Vol. 287, pp. G115-124) were used.
To each BALB/cCrSlc mouse (female, 9-week old, Japan SLC, Inc.), DSS (Molecular Weight: 36-50 kDa; MP Biomedicals) dissolved in sterile ultrapure water was administered via free drinking for 5 days from the day of the start of the administration via drinking water (this day was considered as Day 0 after the start of the administration via drinking water), and then switched to administration of sterile ultrapure water via free drinking for 5 days. This cycle was repeated again, and DSS was further administered via free drinking for another 7 days to produce the colitis model. As an index of colitis symptoms, stool consistency scores were used. The stool consistency scores were based on the following criteria: normal stool was defined as score 0; loose stool was defined as score 2; and diarrhea was defined as score 4. […]

`COc1c(NC(=O)N[C@@H]2Cc3ccccc3[C@@H]2O)cc(C(C)(C)C)cc1[C@@H](O)C(F)(F)F` [Compound 46b, 1-(5-tert-butyl-2-methoxy-3-((R)-2,2,2-trifluoro-1-hydroxyethyl)phenyl)-3-((1S,2R)-1-hydroxy-2,3-dihydro-1H-indene-2-yl)urea] was tested, and the “FLA value (relative to amiodarone hydrochloride 10 μM as 1)” value (HepG2 cells; concentration up to 10 μM) was “less than 1”, the phospholipidosis judgement (HepG2 cells; up to 10 μM, FLA less than 1 = negative) was “negative” and the IC50 (human p38 MAPK α) was 15 nM. The “suppression ratio of auricular swelling, oral administration” value ([1]; 30 mg/kg oral 1 hour before induction) was 37.7%, the “suppression ratio of auricular swelling, auricular application” value ([1]; 20 μL of 0.5 w/v % solution on auricle 1 hour before induction) was 49.2% and the “stool consistency score (total)” value [2] was 5.7±0.8.
